Patent US12679878B2, “CRF2 receptor agonists and their use in therapy” (SANOFI, priority 2020, dated 2026)
Starred links: 1 amine or outer side, 2 acyl side, 3 side chain; linkers in the order of their positions; H or OH if unused. Non-standard residues stand in square brackets, D forms with d. Residues, ends and D or L forms follow the SMILES beside them. Groups on a side chain read outwards from the residue. *: point of attachment. C18 diacid = O=C(O)CCCCCCCCCCCCCCCCC(=O)*; γGlu = O=C(O)[C@H](CCC(=O)[*:2])N[*:1]; AEEA = NCCOCCOCC(=O)O; Aib = CC(C)(N)C(=O)O

Each compound was assayed against T1, human CRF2α receptor (Homo sapiens, UniProt Q13324) (assay: cAMP agonism at human CRF2 α receptor in TeloHEAC cells (Example 7)). Details: cAMP HTRF, TeloHEAC cells stably expressing human CRF2 α, 0% HSA; read-out: EC50 [nM], 0% HSA.
T1 construct: expressed in transfected cells; host or cells: TeloHEAC
T1 sequence (Q13324 1-411): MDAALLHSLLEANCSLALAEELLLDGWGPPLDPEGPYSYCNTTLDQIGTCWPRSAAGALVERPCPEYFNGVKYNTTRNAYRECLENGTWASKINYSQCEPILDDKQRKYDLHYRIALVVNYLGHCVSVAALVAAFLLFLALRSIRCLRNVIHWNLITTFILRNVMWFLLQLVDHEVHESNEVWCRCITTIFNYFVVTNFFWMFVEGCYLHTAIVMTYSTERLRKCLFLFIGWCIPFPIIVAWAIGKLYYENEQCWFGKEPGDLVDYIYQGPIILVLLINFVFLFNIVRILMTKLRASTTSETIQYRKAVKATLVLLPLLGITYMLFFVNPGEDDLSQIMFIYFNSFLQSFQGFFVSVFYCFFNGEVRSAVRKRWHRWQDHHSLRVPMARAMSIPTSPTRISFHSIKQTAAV
Assay type: cell-based
Description: Agonism of compounds for human corticotropin-releasing factor 2α (CRF2 α receptor) was determined by functional assays measuring CAMP response of a TeloHEAC cell line stably expressing human CRF2 α receptor.
Cells were grown in a T175 culture flask placed at 37° C. to near confluence in medium (DMEM/10% FBS) and collected in 2 ml vials in cell culture medium containing 10% DMSO in a concentration of 10-50 million cells/ml. Each vial contained 1.8 ml cells. The vials were slowly frozen to −80° C. in isopropanol and then transferred in liquid nitrogen for storage. Prior to use, frozen cells were thawed quickly at 37° C. and washed (5 min at 900 rpm) with 20 ml cell buffer (1×HBSS; 20 mM HEPES; 0% or 0.1% HSA). Cells were resuspended in assay buffer (cell buffer plus 2 mM IBMX) and adjusted to a cell density of 1 million cells/ml. For measurement, 5 μl cells (final […]) and 5 μL of test compound were added to a 384-well plate, followed by incubation for 30 minutes at room temperature.
The CAMP content of cells was determined using a kit from Cisbio Corp. (cat. no. 62AM4PEC) based on HTRF (Homogenous Time Resolved Fluorescence). After addition of HTRF reagents diluted in lysis buffer (kit components), the plates were incubated for 1 h, followed by measurement of the fluorescence ratio at 665/620 nm. The percent activity value (E %) was calculated by setting 1000 nM of urocortin 2 (UCN2) as 100%. The in vitro potency of the compounds was quantified by determining the concentrations that caused 50% activation of maximal response (EC50).

Structure (SMILES) | EC50 [nM]
CC[C@H](C)[C@H](NC(=O)[C@H](CCC(N)=O)NC(=O)[C@H](CCCCN)NC(=O)[C@H](CC(N)=O)NC(=O)[C@@H](NC(=O)[C@H](CCCCN)NC(=O)[C@H](C)NC(=O)[C@H](CCCCN)NC(=O)[C@H](CCC(N)=O)NC(=O)[C@H](CCCNC(=N)N)NC(=O)[C@H](CCC(N)=O)NC(=O)[C@H](CCCCN)NC(=O)[C@H](CCCCN)NC(=O)[C@H](CCC(N)=O)NC(=O)[C@H](CCCCN)NC(=O)[C@H](CCC(=O)O)NC(=O)[C@H](CCC(N)=O)NC(=O)[C@H](CCCCN)NC(=O)[C@H](CC(C)C)NC(=O)[C@H](CC(C)C)NC(=O)[C@H](CCCCN)NC(=O)[C@H](CCC(N)=O)NC(=O)[C@H](CCCCNC(=O)COCCOCCNC(=O)COCCOCCNC(=O)CC[C@H](NC(=O)CCCCCCCCCCCCCCCCC(=O)O)C(=O)O)NC(=O)[C@@H](NC(=O)[C@H](CCCCN)NC(=O)[C@@H](NC(=O)[C@@H]1CCCN1C(=O)[C@@H](NC(=O)[C@H](CC(=O)O)NC(=O)[C@H](CC(C)C)NC(=O)[C@H](CO)NC(=O)[C@H](CC(C)C)NC(=O)[C@@H](NC(=O)[C@@H](N)Cc1ccccc1)[C@@H](C)O)C(C)C)[C@@H](C)O)[C@@H](C)CC)[C@@H](C)O)C(=O)N[C@@H](CC(C)C)C(=O)N[C@@H](CCC(=O)O)C(=O)N[C@@H](CCC(N)=O)C(=O)N[C@H](C(N)=O)C(C)C [compound 34] (H-FTLSLDVPTKIK([AEEA-AEEA-γGlu-C18 diacid])QKLLKQEKQKKQRQKAKTNKQILEQV-NH2; N-terminus assumed) | 6.88
CC[C@H](C)[C@H](N)C(=O)N[C@H](C(=O)N[C@@H](CC(C)C)C(=O)N[C@@H](CO)C(=O)N[C@@H](CC(C)C)C(=O)N[C@@H](CC(=O)O)C(=O)N[C@H](C(=O)N1CCC[C@H]1C(=O)N[C@H](C(=O)N[C@@H](CCCCN)C(=O)N[C@@H](CC(C)C)C(=O)N[C@@H](CCCCNC(=O)COCCOCCNC(=O)COCCOCCNC(=O)CC[C@H](NC(=O)CCCCCCCCCCCCCCCCC(=O)O)C(=O)O)C(=O)N[C@@H](CCC(N)=O)C(=O)N[C@@H](CCCCN)C(=O)N[C@@H](CC(C)C)C(=O)N[C@@H](CC(C)C)C(=O)N[C@@H](CCCCN)C(=O)N[C@@H](CCC(N)=O)C(=O)N[C@@H](CCC(=O)O)C(=O)N[C@@H](CCCNC(=N)N)C(=O)N[C@@H](CCC(N)=O)C(=O)N[C@@H](CCCNC(=N)N)C(=O)N[C@@H](CCCCN)C(=O)N[C@@H](CCC(=O)O)C(=O)N[C@@H](CCCNC(=N)N)C(=O)N[C@@H](CCC(N)=O)C(=O)N[C@@H](CCC(N)=O)C(=O)N[C@@H](C)C(=O)N[C@@H](CCC(=O)O)C(=O)N[C@H](C(=O)N[C@@H](CC(N)=O)C(=O)N[C@@H](CCCCN)C(=O)N[C@@H](CCCNC(=N)N)C(=O)N[C@H](C(=O)N[C@@H](CC(C)C)C(=O)N[C@@H](CCC(=O)O)C(=O)N[C@@H](CCCNC(=N)N)C(=O)N[C@H](C(N)=O)C(C)C)[C@@H](C)CC)[C@@H](C)O)[C@@H](C)O)C(C)C)C(C)C [compound 37] (H-IVLSLDVPTKLK([AEEA-AEEA-γGlu-C18 diacid])QKLLKQERQRKERQQAETNKRILERV-NH2; N-terminus assumed) | 1.6
CC[C@H](C)[C@H](N)C(=O)N[C@H](C(=O)N[C@@H](CC(C)C)C(=O)N[C@@H](CO)C(=O)N[C@@H](CC(C)C)C(=O)N[C@@H](CC(=O)O)C(=O)N[C@H](C(=O)N1CCC[C@H]1C(=O)N[C@H](C(=O)N[C@@H](CCCCN)C(=O)N[C@@H](CC(C)C)C(=O)N[C@@H](CCCCNC(=O)COCCOCCNC(=O)COCCOCCNC(=O)CC[C@H](NC(=O)CCCCCCCCCCCCCCCCC(=O)O)C(=O)O)C(=O)N[C@@H](CCC(N)=O)C(=O)N[C@@H](CCCCN)C(=O)N[C@@H](CC(C)C)C(=O)N[C@@H](CC(C)C)C(=O)N[C@@H](CCCCN)C(=O)N[C@@H](CCC(N)=O)C(=O)N[C@@H](CCC(=O)O)C(=O)N[C@@H](CCCNC(=N)N)C(=O)N[C@@H](CCC(N)=O)C(=O)N[C@@H](CCCNC(=N)N)C(=O)NC(C)(C)C(=O)N[C@@H](CCC(=O)O)C(=O)N[C@@H](CCCNC(=N)N)C(=O)N[C@@H](CCC(N)=O)C(=O)N[C@@H](CCC(N)=O)C(=O)N[C@@H](C)C(=O)N[C@@H](CCC(=O)O)C(=O)N[C@H](C(=O)N[C@@H](CC(N)=O)C(=O)N[C@@H](CCCCN)C(=O)N[C@@H](CCCNC(=N)N)C(=O)N[C@H](C(=O)N[C@@H](CC(C)C)C(=O)N[C@@H](CCC(=O)O)C(=O)N[C@@H](CCCNC(=N)N)C(=O)N[C@H](C(N)=O)C(C)C)[C@@H](C)CC)[C@@H](C)O)[C@@H](C)O)C(C)C)C(C)C [compound 38] (H-IVLSLDVPTKLK([AEEA-AEEA-γGlu-C18 diacid])QKLLKQERQR[Aib]ERQQAETNKRILERV-NH2) | 20.9
CC[C@H](C)[C@H](N)C(=O)N[C@H](C(=O)N[C@@H](CC(C)C)C(=O)N[C@@H](CO)C(=O)N[C@@H](CC(C)C)C(=O)N[C@@H](CC(=O)O)C(=O)N[C@H](C(=O)N1CCC[C@H]1C(=O)N[C@H](C(=O)N[C@@H](CCCCN)C(=O)N[C@@H](CC(C)C)C(=O)N[C@@H](CCCCNC(=O)COCCOCCNC(=O)COCCOCCNC(=O)CC[C@H](NC(=O)CCCCCCCCCCCCCCCCC(=O)O)C(=O)O)C(=O)N[C@@H](CCC(N)=O)C(=O)N[C@H](C(=O)N[C@@H](CC(C)C)C(=O)N[C@@H](CC(C)C)C(=O)N[C@@H](CCC(=O)O)C(=O)N[C@@H](CCC(N)=O)C(=O)N[C@@H](CCC(=O)O)C(=O)N[C@@H](CCCNC(=N)N)C(=O)N[C@@H](CCC(N)=O)C(=O)N[C@@H](CCCNC(=N)N)C(=O)N[C@@H](CCCCN)C(=O)N[C@@H](CCC(=O)O)C(=O)N[C@@H](CCCNC(=N)N)C(=O)N[C@@H](CCC(N)=O)C(=O)N[C@@H](CCC(N)=O)C(=O)N[C@@H](C)C(=O)N[C@@H](CCC(=O)O)C(=O)N[C@H](C(=O)N[C@@H](CC(N)=O)C(=O)N[C@H](C(=O)N[C@@H](CCC(N)=O)C(=O)N[C@H](C(=O)N[C@@H](CC(C)C)C(=O)N[C@@H](C)C(=O)N[C@@H](CCC(N)=O)C(=O)N[C@H](C(N)=O)C(C)C)[C@@H](C)CC)C(C)C)[C@@H](C)O)[C@@H](C)CC)[C@@H](C)CC)C(C)C)C(C)C [compound 40] (H-IVLSLDVPIKLK([AEEA-AEEA-γGlu-C18 diacid])QILLEQERQRKERQQAETNVQILAQV-NH2; N-terminus assumed) | 15.4
CC[C@H](C)[C@H](N)C(=O)N[C@H](C(=O)N[C@@H](CC(C)C)C(=O)N[C@@H](CO)C(=O)N[C@@H](CC(C)C)C(=O)N[C@@H](CC(=O)O)C(=O)N[C@H](C(=O)N1CCC[C@H]1C(=O)N[C@H](C(=O)N[C@@H](CCCCN)C(=O)N[C@@H](CC(C)C)C(=O)N[C@@H](CCCCNC(=O)COCCOCCNC(=O)COCCOCCNC(=O)CC[C@H](NC(=O)CCCCCCCCCCCCCCCCC(=O)O)C(=O)O)C(=O)N[C@@H](CCC(N)=O)C(=O)N[C@H](C(=O)N[C@@H](CC(C)C)C(=O)N[C@@H](CC(C)C)C(=O)N[C@@H](CCC(=O)O)C(=O)N[C@@H](CCC(N)=O)C(=O)N[C@@H](CCC(=O)O)C(=O)N[C@@H](CCCNC(=N)N)C(=O)N[C@@H](CCC(N)=O)C(=O)N[C@@H](CCCNC(=N)N)C(=O)N[C@@H](CCCCN)C(=O)N[C@@H](CCC(=O)O)C(=O)N[C@@H](CCCNC(=N)N)C(=O)N[C@@H](CCC(N)=O)C(=O)N[C@@H](CCC(N)=O)C(=O)N[C@@H](C)C(=O)N[C@@H](CCC(=O)O)C(=O)N[C@@H](CCCCN)C(=O)N[C@@H](CC(N)=O)C(=O)N[C@H](C(=O)N[C@@H](CCCNC(=N)N)C(=O)N[C@H](C(=O)N[C@@H](CC(C)C)C(=O)N[C@@H](CCC(=O)O)C(=O)N[C@@H](CCCNC(=N)N)C(=O)N[C@H](C(N)=O)C(C)C)[C@@H](C)CC)C(C)C)[C@@H](C)CC)[C@@H](C)CC)C(C)C)C(C)C [compound 41] (H-IVLSLDVPIKLK([AEEA-AEEA-γGlu-C18 diacid])QILLEQERQRKERQQAEKNVRILERV-NH2; N-terminus assumed) | 15.6
